From publication PMC10353446, “Pharmacokinetics of SPR206 in Plasma, Pulmonary Epithelial Lining Fluid, and Alveolar Macrophages following Intravenous Administration to Healthy Adult Subjects” (Antimicrobial Agents and Chemotherapy, 2023)
Where a SMILES comes first, the peptide text is derived from it. Bridges are numbered along the chain shown (N, C = ends). [ ]: non-standard residue; d: D form. The star is where a group is joined. X1 = NC[C@@H](CC(=O)*)c1cccc(Cl)c1; Dab = NCC[C@H](N)C(=O)O; Dap = NC[C@H](N)C(=O)O

Legend:
[1] = Alveolar macrophage (AM) pharmacokinetics of SPR206 from BAL cell pellet; assay type: in vivo, human
Experimental: (§1) This was a Phase 1, single-center, multiple-dose, open-label PK study in healthy adult male and female subjects. Subjects received three 100 mg doses of SPR206 administered q8h as a 1-h IV infusion. Three consecutive doses were sufficient to achieve steady-state based on a previous Phase 1 study in healthy subjects ([36]). A screening evaluation to determine eligibility for enrollment into the study was performed within 28 days of initial dosing. Subjects who met inclusion and exclusion criteria returned to the study unit 1 day before dosing (Day -1). Subjects who met inclusion and exclusion criteria were confined to the study site from Day -1 (1 day prior to start of dosing) and remained in the study site through completion of all scheduled procedures including collection of the last PK sample and bronchoscopy procedures along with safety evaluations (Day 2). Each subject underwent 1 bronchoscopy with BAL at 2, 3, 4, 6, or 8 h after the start of the third IV infusion. Subjects were required to return for a follow-up visit on Day 7 (+2 days) after discharge from the study site. The maximum duration of participation for each subject was up to 39 days (up to 28 days for Screening, 2 days of confinement, and up to 9 days for follow-up).
(§2) Subjects were assigned to 1 of 5 bronchoscopy sampling times at 2, 3, 4, 6, or 8 (± 10 min) after the third IV infusion of SPR206. Each subject underwent 1 standardized bronchoscopy and BAL on Day 2 at the assigned time. A blood sample to determine plasma concentrations of SPR206 and urea was obtained during the bronchoscopy procedure at each BAL sampling time (approximating the time of collection of a second aspirate of BAL). Detail descriptions of the outpatient bronchoscopy, BAL procedures, and the handling, processing, and storage of samples have been previously described ([58][–][60]).
(§3) The concentrations of SPR206 in BAL and in cell pellets were determined by Keystone Bioanalytical, Inc. using a validated LC-MS/MS method. ELF concentrations were calculated by the urea dilution method ([61], [62]). AM concentrations were determined from cell pellet drug concentrations, cell count in BAL fluid, and macrophage cell volume ([62]). The calibration curves for SPR206 were linear over a range from 2 to 1,000 ng/mL. The inter-assay precision (%CV) and accuracy (%RE) for SPR206 were 2.81% to 15.84% and -4.02% to 1.51%, respectively. The intra-assay precision (%CV) and accuracy (%RE) for SPR206 were 1.43% to 18.59% and -17.44% to 6.28%, respectively.
(§4) Actual BAL samples were collected outside the protocol-specified sampling time windows. Thus, an updated method was utilized where the PK parameters for ELF or AM were calculated from composite concentration profiles of ELF or AM, respectively, based on the 27 subjects in the BAL PK population. Some blood samples were collected outside of the planned sampling windows, and therefore, individual plasma AUC0-8 was calculated first and the mean population plasma AUC0-8 was derived from all individual AUC0-8 values.
Concentrations of SPR206 were summarized separately for plasma, ELF, and AM by nominal time point using descriptive statistics. The mean concentrations of SPR206 in BAL fluid obtained at the different BAL fluid sampling times (e.g., 2, 3, 4, 6, and 8 h) were used to estimate the AUC0-8 for SPR206 in plasma, ELF, and AM. The concentration at the final sampling time (8 h) also served as the time zero value for determining the AUC0-8 value of each matrix using Phoenix WinNonlin software (version 8.3, Certara Inc.). The ratios of the AUC0-8 of ELF or AM to the AUC0-8 of plasma (total and unbound) were calculated. Plasma protein binding analyses were not conducted as part of this study. The value used for the unbound fraction of SPR206 in plasma was 0.914 (Spero Therapeutics, Inc., data on file). The measured concentrations in ELF and AM represented unbound concentrations, since only unbound plasma fractions are considered to penetrate the lung compartments. […]

[2] = Safety and tolerability in healthy subjects (Phase 1 BAL study); assay type: in vivo, human
Experimental: as §1
Subjects were continuously monitored during the bronchoscopy. Vital signs (blood pressure, heart rate, and respiratory rate) were recorded prior to the scheduled bronchoscopy time and at 15 min and 1 h following the end of bronchoscopy. Subjects were kept under observation for 2 to 3 h post-bronchoscopy for safety evaluations. Continuous pulse oximetry was conducted from the beginning of preparation of the subject for bronchoscopy until the post-procedure oxygen saturation was at least 93% on room air. Pulse oximetry was extended if a clinically significant increase in heart rate or cardiac rhythm abnormalities were detected. Other safety assessments included physical examinations, clinical laboratory monitoring (hematology, blood chemistry, and urinalysis), 12-lead ECG, and adverse event recording.

[3] = in vivo; cited from earlier work
[4] = Epithelial lining fluid (ELF) pharmacokinetics of SPR206 by bronchoscopy with BAL, urea dilution method; assay type: in vivo, human
Experimental: as §1, §2, §3
The concentration of urea in plasma and BAL fluid supernatants was determined using a validated LC/MS/MS method from Keystone Bioanalytical, Inc. Thirty human plasma and 30 BAL fluid samples were assayed for urea concentrations. A total of 10 samples for both plasma and BAL fluid (33.3%) were selected for testing, and the calculated assay variability was within 20%. The calibration curve for the urea assay in plasma was linear over the range from 100 to 3,000 μg/mL. The inter-assay precision (%CV) and accuracy (%RE) for SPR206 were 1.98% to 3.37% and -8.17% to 4.13%, respectively. The intra-assay precision (%CV) and accuracy (%RE) for SPR206 were 0.56% to 5.60% and -10.21% to 8.54%, respectively. The calibration range of the urea assay for BAL fluid was linear (r^2 > 0.998) over the range of 0.2 to 10 μg/mL. The inter-assay precision (%CV) and accuracy (%RE) for SPR206 were 6.40% to 9.77% and -3.22% to 1.47%, respectively. The intra-assay precision (%CV) and accuracy (%RE) for SPR206 were 0.96% to 12.08% and -11.30% to 9.15%, respectively.
Actual BAL samples were collected outside the protocol-specified sampling time windows. Thus, an updated method was utilized where the PK parameters for ELF or AM were calculated from composite concentration profiles of ELF or AM, respectively, based on the 27 subjects in the BAL PK population. […]

clinical = conditions: human, in vivo, iv, 100 mg
Experimental: as §1
Blood samples for determining SPR206 plasma concentrations were collected within 60 min pre-dose (0 h) prior to second and third doses of SPR206 only and at 2, 3, 4, 6, and 8 h after the start of the third dose of SPR206.
Concentrations of SPR206 in plasma were determined by a validated liquid chromatography with tandem mass spectrometry (LC-MS/MS) assay performed at QPS, LLC. For plasma, the assay range was 50 to 50,000 ng/mL. In plasma, intraday precision (% coefficient of variation) ranged from 1.3% to 7.7%, and accuracy (% relative error) ranged from -1.2% to 9.5%. Interday precision ranged from 2.9% to 5.3% and accuracy ranged from 1.6% to 6.0%.
PK analysis of SPR206 plasma concentrations was determined with noncompartmental PK analysis using Phoenix WinNonlin software (version 8.3, Certara Inc.). PK parameters were Tmax, Cmax, Cmin, and AUC0-8.
as §4
Concentrations of SPR206 were summarized separately for plasma, ELF, and AM by nominal time point using descriptive statistics. The mean concentrations of SPR206 in BAL fluid obtained at the different BAL fluid sampling times (e.g., 2, 3, 4, 6, and 8 h) were used to estimate the AUC0-8 for SPR206 in plasma, ELF, and AM. The concentration at the final sampling time (8 h) also served as the time zero value for determining the AUC0-8 value of each matrix using Phoenix WinNonlin software (version 8.3, Certara Inc.). The ratios of the AUC0-8 of ELF or AM to the AUC0-8 of plasma (total and unbound) were calculated. Plasma protein binding analyses were not conducted as part of this study. The value used for the unbound fraction of SPR206 in plasma was 0.914 (Spero Therapeutics, Inc., data on file). The measured concentrations in ELF and AM represented unbound concentrations, since only unbound plasma fractions are considered to penetrate the lung compartments. Individual plasma concentration-time profile versus time and arithmetic mean concentration (±SD) versus time plots were presented for the concentration-time data.

[5] = cited from earlier work
kidney cell = conditions: cited from earlier work
[6] = human, in vivo, iv; cited from earlier work
[7] = in vivo, cited from earlier work
[8] = BAL sampling time 2 hours post-dose
[9] = BAL sampling time 2 hours post-dose, unbound fraction 0.914
[10] = BAL sampling time 3 hours post-dose
[11] = BAL sampling time 3 hours post-dose, unbound fraction 0.914
[12] = BAL sampling time 4 hours post-dose
[13] = BAL sampling time 4 hours post-dose, unbound fraction 0.914
[14] = BAL sampling time 6 hours post-dose
[15] = BAL sampling time 6 hours post-dose, unbound fraction 0.914
[16] = BAL sampling time 8 hours post-dose
[17] = BAL sampling time 8 hours post-dose, unbound fraction 0.914
[18] = both sexes, human, in vivo, iv, 100 mg

Molecule: CC(C)C[C@@H]1NC(=O)[C@@H](Cc2ccccc2)NC(=O)[C@H](CCN)NC(=O)[C@@H](NC(=O)[C@H](CN)NC(=O)[C@@H](NC(=O)C[C@H](CN)c2cccc(Cl)c2)[C@@H](C)O)CCNC(=O)[C@H]([C@@H](C)O)NC(=O)[C@H](CCN)NC(=O)[C@H](CCN)NC1=O [SPR206] (X1-T[Dap][Dab][Dab][dF]L[Dab][Dab]T; lactam 3-C (inferred))
- Ratio AM to total plasma concentration, arithmetic mean ± SD [1, 8]: 0.206 ± 0.114
- Ratio AM to unbound plasma concentration, arithmetic mean ± SD [1, 9]: 0.226 ± 0.124
- Ratio AM to total plasma concentration, arithmetic mean ± SD [1, 10]: 0.184 ± 0.065
- Ratio AM to unbound plasma concentration, arithmetic mean ± SD [1, 11]: 0.201 ± 0.071
- Ratio AM to total plasma concentration, arithmetic mean ± SD [1, 12]: 0.223 ± 0.089
- Ratio AM to unbound plasma concentration, arithmetic mean ± SD [1, 13]: 0.244 ± 0.097
- Ratio AM to total plasma concentration, arithmetic mean ± SD [1, 14]: 0.519 ± 0.223
- Ratio AM to unbound plasma concentration, arithmetic mean ± SD [1, 15]: 0.568 ± 0.244
- Ratio AM to total plasma concentration, arithmetic mean ± SD [1, 16]: 0.503 ± 0.192
- Ratio AM to unbound plasma concentration, arithmetic mean ± SD [1, 17]: 0.550 ± 0.210
- Ratio of AUC0-8 of AM to AUC0-8 of total plasma ([1]; after third 100 mg IV dose, plasma n = 34, AM n = 27): 0.300
- Ratio of AUC0-8 of AM to AUC0-8 of unbound plasma ([1]; after third 100 mg IV dose, plasma n = 34, AM n = 27, unbound fraction 0.914): 0.328
- AUC(0-t) [1, 18]: 6030 ng·h/mL
- Cmax [1, 18]: 861 ng/mL
- Tmax [1, 18]: 6.4 h
- Deaths, serious AEs, AEs leading to discontinuation ([2]; 100 mg IV q8h x 3 doses): No deaths, serious AEs, or AEs leading to study drug discontinuation or study discontinuation were reported
- TEAEs reported as mild in severity (of 40 reported TEAEs) ([2]; human, in vivo, iv): 85.0%
- Clinical laboratory parameters including blood urea nitrogen, serum creatinine, estimated creatinine clearance ([2]; human, in vivo, iv, 100 mg): No clinically significant abnormalities
- Exposure in the kidney [3]: lower exposure in the kidney than polymyxin B
- Ratio ELF to total plasma concentration, arithmetic mean ± SD [4, 8]: 0.183 ± 0.032
- Ratio ELF to unbound plasma concentration, arithmetic mean ± SD [4, 9]: 0.200 ± 0.035
- Ratio ELF to total plasma concentration, arithmetic mean ± SD [4, 10]: 0.199 ± 0.066
- Ratio ELF to unbound plasma concentration, arithmetic mean ± SD [4, 11]: 0.218 ± 0.072
- Ratio ELF to total plasma concentration, arithmetic mean ± SD [4, 12]: 0.190 ± 0.067
- Ratio ELF to unbound plasma concentration, arithmetic mean ± SD [4, 13]: 0.208 ± 0.074
- Ratio ELF to total plasma concentration, arithmetic mean ± SD [4, 14]: 0.428 ± 0.176
- Ratio ELF to unbound plasma concentration, arithmetic mean ± SD [4, 15]: 0.469 ± 0.192
- Ratio ELF to total plasma concentration, arithmetic mean ± SD [4, 16]: 0.347 ± 0.138
- Ratio ELF to unbound plasma concentration, arithmetic mean ± SD [4, 17]: 0.380 ± 0.151
- Ratio of AUC0-8 of ELF to AUC0-8 of total plasma ([4]; after third 100 mg IV dose, plasma n = 34, ELF n = 27): 0.242
- Ratio of AUC0-8 of ELF to AUC0-8 of unbound plasma ([4]; after third 100 mg IV dose, plasma n = 34, ELF n = 27, unbound fraction 0.914): 0.264
- AUC(0-t) [4, 18]: 4860 ng·h/mL
- Cmax [4, 18]: 736 ng/mL
- Tmax [4, 18]: 2.2 h
- Vd (clinical; both sexes): 19.8 L
- half-life (clinical; both sexes): 3.6 h
- AUC(0-t) (clinical; both sexes, AUC0-8, geometric mean (CV%)): 19800 ng·h/mL
- Cmax (clinical; both sexes, arithmetic mean (SD)): 4400 ng/mL
- Cmax (clinical; both sexes, geometric mean (CV%)): 4300 ng/mL
- Tmax (clinical; both sexes, Median time to peak plasma concentrations (Tmax)): 2 h
- Tmax (clinical; both sexes, Tmax range): 1.8 to 2.9 h
- Tmax (clinical; both sexes, Tmax, arithmetic mean (SD)): 2.1 h
- Tmax (clinical; both sexes, Tmax, geometric mean (CV%)): 2.1 h
- AUC0-8, geometric mean (CV%) (clinical; both): 19817.9 (17.9) h*ng/mL
- Cmax, geometric mean (CV%) (clinical; both): 4333.4 (17.2) ng/mL
- t1/2, geometric mean (CV%) (clinical; both): 3.6 (13.5) hours
- Vz, geometric mean (CV%) (clinical): 19502.1 (18.1) mL
- Unbound fraction in plasma [5]: 0.914
- Kidney cell cytotoxicity (kidney cell): reduced kidney cell cytotoxicity

Molecule: colistin
- Levels in BAL fluid [6]: undetectable levels
- Lung concentrations ([7]; iv): undetectable
- Lung concentrations relative to MIC50 for P. aeruginosa [7]: below the MIC50 for P. aeruginosa
